The record followed here is patent US20210040073A1, “AZABICYCLO-SUBSTITUTED TRIAZOLE DERIVATIVE, PREPARATION METHOD THEREOF, AND APPLICATION OF SAME IN MEDICINE” (Jiangsu Hengrui Medicine Co., Ltd., priority 2016, published 2021).

The structures appear in SMILES notation.

The target of one series is T1, human V1aR (Homo sapiens, UniProt P37288).
T1 construct: expressed in transfected cells
Kind of series: Inhibition activity on human V1aR (Fluo-4 calcium assay, HEK293/human V1aR stably transfected cells, vasopressin 3 nM). It counts as cell-based. The note with it: calcium signal. The protocol:
The inhibition effect of the compounds of the present invention on the activity of human V1aR protein expressed in HEK293/human V1aR stably transfected cells was determined by the following experimental method:
The pcDNA3.1-V1aR plasmid was transferred into HEK293 cells with the Lipofectamine® 3000 transfection reagent; G418 was added on the next day to screen, and monoclonal cell lines were selected.
(§1) HEK293/human V1aR stably transfected cells were inoculated in a 96-well plate with an inoculation density of 25,000 cells/well one day in advance. On the next day, a loading buffer containing Fluo-4 dye was formulated using the reagents in the Fluo-4 NW calcium assay kit, and the culture medium was then removed; 100 μl of the loading buffer containing Fluo-4 dye were added to each well, and the plate was incubated at 37° C. for 30 minutes. After that, the plate was moved to room temperature and equilibrated for 10 minutes. The compounds were formulated into concentration gradients of 10^6, 10^5, 10^4, 10^3, 10^2 and 10^1 nM. 1 μl of the compounds in each concentration was added to each well, and the plate was incubated at room temperature for 10 minutes. […] IC50 values of the compounds were calculated by Graphpad prism software using fluorescence signals corresponding to different concentrations.
The inhibition activity of the compounds of the present invention on human V1aR was determined by the above test, and the obtained IC50 values are shown in Table 2.

The target in a further series is T2, human V1bR (Homo sapiens, UniProt P47901).
T2 construct: expressed in transfected cells; host or cells: HEK293 (G418-selected pool)
T2 sequence (P47901 1-424): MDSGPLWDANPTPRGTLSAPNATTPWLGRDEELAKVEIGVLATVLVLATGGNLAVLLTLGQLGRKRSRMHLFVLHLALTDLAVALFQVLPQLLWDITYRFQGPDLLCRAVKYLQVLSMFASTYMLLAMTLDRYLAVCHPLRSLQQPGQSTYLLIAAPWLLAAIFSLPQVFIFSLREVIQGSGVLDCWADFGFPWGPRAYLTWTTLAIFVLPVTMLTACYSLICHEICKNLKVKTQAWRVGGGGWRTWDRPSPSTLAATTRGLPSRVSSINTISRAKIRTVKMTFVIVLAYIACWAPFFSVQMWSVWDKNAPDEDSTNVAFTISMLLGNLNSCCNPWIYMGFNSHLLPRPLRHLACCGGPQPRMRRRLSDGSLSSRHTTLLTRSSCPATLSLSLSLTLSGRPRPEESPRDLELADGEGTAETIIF
Nature of the series: Inhibition activity on human V1bR (Fluo-4 calcium assay, HEK293/human V1bR pool cells, vasopressin 3 nM). It counts as cell-based. Conditions: calcium signal. The protocol:
The inhibition effect of the compounds of the present invention on the activity of human V1bR protein expressed in HEK293/human V1bR cells was determined by the following experimental method:
The pcDNA3.1-V1bR plasmid was transferred into HEK293 cells with the Lipofectamine® 3000 transfection reagent; G418 was added on the next day, and the HEK293/human V1bR pool cell lines were obtained.
as §1, with “V1bR pool” for “V1aR stably transfected”

The next series has as its target T3, human V2R (Homo sapiens, UniProt P30518).
T3 construct: expressed in transfected cells; host or cells: HEK293 (G418-selected pool)
Nature of the series: Inhibition activity on human V2R (cAMP HTRF assay, HEK293/human V2R pool cells, vasopressin). It counts as cell-based. The protocol:
The inhibition effect of the compounds of the present invention on the activity of human V2R protein expressed in HEK293/human V2R cells was determined by the following experimental method:
The pcDNA3.1-V2R plasmid was transferred into HEK293 cells with the Lipofectamine® 3000 transfection reagent; G418 was added on the next day, and the HEK293/human V2R pool cell lines were obtained.
HEK293/human V2R pool cells were digested with the cell dissociation solution (enzyme-free), thereby dissociating the cells from the cell culture dish into individual cells. After completion, the cell solution was blown well, and centrifuged to remove the supernatant. The cells were re-suspended in the test buffer 1 (1×HBSS+20 mM HEPES+0.1% BSA) and counted. The cell density was adjusted to 1250 cells/5 μl, i.e., 2.5*10^5/ml.
The compounds were formulated into a series of concentrations of 20 mM, 6.67 mM, 2.22 mM, 0.74 mM, 0.25 mM, 0.08 mM, 27.4 μM, 9.14 μM, 3.05 μM, 1.02 μM, 0.34 μM and 0 μM (DMSO) with pure DMSO. The compounds were then formulated into a 4-fold use concentration with the test buffer 2 (test buffer 1+1 mM IBMX).
Agonist: 460 μM vasopressin was used as the mother liquor, formulated as a 2 μM solution with DMSO, which was then diluted to a 0.5 nM solution with the test buffer 2.
Standard: The first point was 20 μl of a stock solution (2848 nM), which was diluted successively to a total of eleven concentrations in a 4-fold concentration gradient with the test buffer 1 from the second point.
1. The well-mixed cells were added to a 384-well plate (5 μl/well) without changing the tip.
2. The test compounds and positive compound formulated were added (2.5 μl/well), and the tips were changed.
3. The plate was centrifuged at 1000 rpm for 1 min, shaken for 30 sec to mix well, and incubated at room temperature for 30 min.
4. The standard curve wells were added with the test buffer 2 (5 μl/well).
5. The agonist formulated was added (2.5 μl/well), and the tips were changed; the plate was centrifuged at 1000 rpm for 1 min, shaken for 30 sec to mix well, and incubated at room temperature for 30 min.
6. cAMP-d2 (a component in the cAMP dynamic 2 kit) and Anti-cAMP-Eu-Cryptate (a component in the cAMP dynamic 2 kit) were formulated in the dark, which were then mixed well with cAMP lysate (a component in the cAMP dynamic 2 kit) in a ratio of 1:4. Each well was added with the formulated cAMP-d2 solution (5 μl/well), followed by addition of Anti-cAMP-Eu-Cryptate (5 μl/well). The plate was shaken for 30 sec to mix well, and incubated in the dark at room temperature for 1 h.
4) Plate reading: The HTRF signals were read by the PheraStar multi-function microplate reader.
The data in this test was processed using the data processing software Graphpad Prism.
The inhibition activity of the compounds of the present invention on human V2R was determined by the above test, and the obtained IC50 values are shown in Table 4.

In a further series the target is T4, human OTR (Homo sapiens, UniProt P30559).
T4 construct: expressed in transfected cells
T4 sequence (P30559 1-389): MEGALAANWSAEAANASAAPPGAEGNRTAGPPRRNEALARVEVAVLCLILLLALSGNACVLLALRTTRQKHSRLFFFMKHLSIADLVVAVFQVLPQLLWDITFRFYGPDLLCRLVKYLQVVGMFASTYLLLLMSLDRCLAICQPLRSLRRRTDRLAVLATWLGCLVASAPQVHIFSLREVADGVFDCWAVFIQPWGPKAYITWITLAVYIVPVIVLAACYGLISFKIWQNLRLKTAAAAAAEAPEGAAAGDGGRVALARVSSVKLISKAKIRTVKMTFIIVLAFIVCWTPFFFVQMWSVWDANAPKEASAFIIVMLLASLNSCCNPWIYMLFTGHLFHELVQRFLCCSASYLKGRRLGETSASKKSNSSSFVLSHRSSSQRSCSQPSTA
Nature of the series: Inhibition activity on human OTR (Fluo-4 calcium assay, HEK293/human OTR stably transfected cells, oxytocin 3 nM). It counts as cell-based. The note with it: calcium signal. The protocol: The inhibition effect of the compounds of the present invention on the activity of human OTR protein expressed in HEK293/human OTR stably transfected cells was determined by the following experimental method:
The pcDNA3.1-hOTR plasmid was transferred into HEK293 cells with the Lipofectamine® 3000 transfection reagent; G418 was added on the next day to screen, and monoclonal cell lines were selected.
HEK293/human OTR stably transfected cells were inoculated in a 96-well plate with an inoculation density of 25,000 cells/well one day in advance. On the next day, a loading buffer containing Fluo-4 dye was formulated using the reagents in the Fluo-4 NW calcium assay kit, and the culture medium was then removed; 100 μl of the loading buffer containing Fluo-4 dye were added to each well, and the plate was incubated at 37° C. for 30 minutes. After that, the plate was moved to room temperature and equilibrated for 10 minutes. The compounds were formulated into concentration gradients of 10^6, 10^5, 10^4, 10^3, 10^2 and 10^1 nM. 1 μl of the compounds in each concentration was added to each well, and the plate was incubated at room temperature for 10 minutes. 50 μl of oxytocin polypeptide (3 nM) were automatically added by the machine, and the values were immediately detected at 494/516 nM by the flexstation 3 microplate reader. IC50 values of the compounds were calculated by Graphpad prism software using fluorescence signals corresponding to different concentrations.
The inhibition activity of the compounds of the present invention on human OTR was determined by the above test, and the obtained IC50 values are shown in Table 1.

A short description of series [1]: Pharmacokinetics assay in rats after intragastrical administration. The note with it: both, Sprague-Dawley, rat, plasma, po, 2 mg/kg.
Experimental: Rats were used as test animals. […] The pharmacokinetic behavior of the compounds of the present invention was studied and evaluated in rats.
After an overnight fast, SD rats were administered intragastrically the test compounds at an administration dosage of 2.0 mg/kg and an administration volume of 10.0 mL/kg.
0.2 mL of blood was taken from the orbital sinus before administration and at 0.5, 1.0, 2.0, 4.0, 6.0, 8.0, 11.0 and 24.0 hours after administration. The samples were stored in heparinized tubes, and centrifuged for 10 minutes at 4° C. at 3,500 rpm to separate the blood plasma. The plasma samples were stored at −20° C. The rats were fed 2 hours after administration.
The content of the test compounds in the plasma of rats after intragastrical administration of the test compounds at different concentrations was determined: 25 μL of rat plasma at each time after administration was taken, added with 50 μL of the internal standard solution of camptothecin (100 ng/mL) and 200 μL of acetonitrile, vortex-mixed for 5 minutes, and centrifuged for 10 minutes (4000 rpm). 1.0 μL of the supernatant was taken from the plasma samples for LC/MS/MS analysis.

T1 sequence (P37288 whole entry): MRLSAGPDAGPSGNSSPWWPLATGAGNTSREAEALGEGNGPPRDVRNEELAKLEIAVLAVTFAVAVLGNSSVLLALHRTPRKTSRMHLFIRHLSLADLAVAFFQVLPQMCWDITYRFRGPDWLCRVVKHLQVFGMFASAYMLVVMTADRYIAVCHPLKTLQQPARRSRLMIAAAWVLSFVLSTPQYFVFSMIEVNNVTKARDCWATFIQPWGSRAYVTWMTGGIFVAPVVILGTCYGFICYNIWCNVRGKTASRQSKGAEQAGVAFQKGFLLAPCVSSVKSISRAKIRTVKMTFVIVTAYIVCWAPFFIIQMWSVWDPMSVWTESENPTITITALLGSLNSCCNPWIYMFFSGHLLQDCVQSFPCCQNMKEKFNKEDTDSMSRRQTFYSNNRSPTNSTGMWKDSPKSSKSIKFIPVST
T3 sequence (P30518 whole entry): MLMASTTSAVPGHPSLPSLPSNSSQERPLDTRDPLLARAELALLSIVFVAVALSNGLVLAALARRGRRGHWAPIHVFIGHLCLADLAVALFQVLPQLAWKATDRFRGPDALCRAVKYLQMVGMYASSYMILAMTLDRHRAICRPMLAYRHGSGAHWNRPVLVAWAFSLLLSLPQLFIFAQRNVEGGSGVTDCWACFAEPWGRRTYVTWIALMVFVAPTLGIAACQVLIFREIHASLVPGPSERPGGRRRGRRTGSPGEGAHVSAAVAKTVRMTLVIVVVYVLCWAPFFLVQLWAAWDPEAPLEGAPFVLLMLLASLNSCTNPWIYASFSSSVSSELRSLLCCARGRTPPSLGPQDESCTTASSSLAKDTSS

The term IC50 denotes the midpoint of a concentration-inhibition curve. As for `COc1ccc(-n2c(COC3CCOCC3)nnc2N2C[C@@H]3C[C@]3(c3ccc(F)cc3Cl)C2)cn1` [Example 2, (1S,5R)-1-(2-Chloro-4-fluorophenyl)-3-(4-(6-methoxypyridin-3-yl)-5-(((tetrahydro-2H-pyran-4-yl)oxy)methyl)-4H-1,2,4-triazol-3-yl)-3-azabicyclo[3.1.0]hexane], the IC50 at human V1aR is 4.7 µM.

For the compound `COc1ccc(-n2c(CO[C@H]3CCOC3)nnc2N2C[C@@H]3C[C@]3(c3ccc(F)cc3Cl)C2)cn1` [Example 3, (1S,5R)-1-(2-Chloro-4-fluorophenyl)-3-(4-(6-methoxypyridin-3-yl)-5-((((S)-tetrahydrofuran-3-yl)oxy)methyl)-4H-1,2,4-triazol-3-yl)-3-azabicyclo[3.1.0]hexane], the figures for the IC50 on human V1aR, on human V1bR and against human V2R were 7.5 µM, 56.7 µM and 23 µM, respectively.

`COCc1nnc(N2C[C@@H]3C[C@]3(c3ccc(F)cc3Cl)C2)n1-c1ccc2c(c1)OCO2` [Example 5, (1S,5R)-3-(4-(Benzo[d][1,3]dioxol-5-yl)-5-(methoxymethyl)-4H-1,2,4-triazol-3-yl)-1-(2-chloro-4-fluorophenyl)-3-azabicyclo[3.1.0]hexane]: the IC50 on human OTR was found to be 0.131 µM; at human V1aR it was 1 µM.

What is called AUC is the area under the concentration-time curve, a measure of exposure. Low readings indicate less exposure, high ones more exposure. As usually defined, the CL/F is the apparent clearance, not corrected for the fraction that reaches the circulation. What is called Cmax is the highest concentration seen after dosing. For orientation: MRT means the average time that molecules of a dose stay in the body. Usually Vd/F stands for the apparent distribution volume after extravascular dosing. For orientation: half-life means how long it takes for the measured level to halve. A higher half-life goes with slow decline. For `COCc1nnc(N2CC3CC3(c3ccc(F)cc3Cl)C2)n1-c1ccc(OC)nc1` (stereo not drawn) [Example 8, 1-(2-Chloro-4-fluorophenyl)-3-(5-(methoxymethyl)-4-(6-methoxypyridin-3-yl)-4H-1,2,4-triazol-3-yl)-3-azabicyclo[3.1.0]hexane], at human OTR, the IC50 was 0.023 µM. The IC50 on human V1aR stood at 3 µM. Besides, the IC50 on human V1bR worked out at 43.3 µM. In series [1], this compound had an AUC of 1980 ± 1020 ng·h/mL, a CL/F of 23.3 ± 18 mL/min/kg, a Cmax of 635 ± 273 ng/mL and a mean residence time MRT of 2.18 ± 0.24 h. In series [1], this compound gave a Vd/F of 1.94 ± 0.983 L/kg and a half-life of 1.08 ± 0.21 h.

As for `COCc1nnc(N2C[C@H]3C[C@@]3(c3ccc(F)cc3Cl)C2)n1-c1ccc(OC)nc1` [Example 10, (1R,5S)-1-(2-Chloro-4-fluorophenyl)-3-(5-(methoxymethyl)-4-(6-methoxypyridin-3-yl)-4H-1,2,4-triazol-3-yl)-3-azabicyclo[3.1.0]hexane], the 50% inhibitory concentration (IC50) on human OTR amounted to 0.624 µM.

In the case of `COc1ccc(-n2c(COC(F)F)nnc2N2C[C@@H]3C[C@]3(c3ccc(F)cc3Cl)C2)cn1` [Example 11, (1S,5R)-1-(2-Chloro-4-fluorophenyl)-3-(5-((difluoromethoxy)methyl)-4-(6-methoxypyridin-3-yl)-4H-1,2,4-triazol-3-yl)-3-azabicyclo[3.1.0]hexane], the IC50 at human OTR was 0.001 µM. Besides, the IC50 at human V1bR worked out at 7.8 µM. This compound also returned a half-inhibitory concentration (IC50) against human V2R of 6.8 µM. For the same compound, in series [1], the AUC was 3980 ± 2970 ng·h/mL, the CL/F turned out to be 12.6 ± 8.03 mL/min/kg, the Cmax was 405 ± 110 ng/mL and the mean residence time MRT is 5.82 ± 2.73 h. In series [1], this compound showed a Vd/F of 2.46 ± 0.706 L/kg and a half-life of 2.86 ± 1.27 h.

Turning to `COc1ccc(-n2c(C(F)F)nnc2N2C[C@@H]3C[C@]3(c3ccc(F)cc3Cl)C2)cn1` [Example 13, (1S,5R)-1-(2-Chloro-4-fluorophenyl)-3-(5-(difluoromethyl)-4-(6-methoxypyridin-3-yl)-4H-1,2,4-triazol-3-yl)-3-azabicyclo[3.1.0]hexane], the IC50 at human OTR came out at 0.052 µM; on human V1aR it was 1.9 µM.

Turning to `[2H]C([2H])([2H])OCc1nnc(N2C[C@@H]3C[C@]3(c3ccc(F)cc3Cl)C2)n1-c1ccc(OC)nc1` [Example 14, (1S,5R)-1-(2-Chloro-4-fluorophenyl)-3-(5-((methoxy-d3)methyl)-4-(6-methoxypyridin-3-yl)-4H-1,2,4-triazol-3-yl)-3-azabicyclo[3.1.0]hexane], the IC50 at human OTR was determined as 0.068 µM; at human V1bR, 20.5 µM; against human V2R, 10.4 µM.
